Experimental data as given in US20250152585A1, “PHARMACEUTICAL COMPOUND” (Duke Street Bio Limited, priority 2022, published 2025).
Read-outs that look alike come from different tables or passages of the source.

Columns and labels:
[1] = target: T1, N-terminally FLAG-tagged PARP2 (amino acids 1-583) (Homo sapiens, UniProt Q9UGN5); experiment: PARP2 probe displacement HTRF assay; assay type: binding; details: binned Kd
T1 construct: N-terminally FLAG-tagged PARP2 (amino acids 1-583)
Procedure: Data analysis was performed identical as for PARP1.

[2] = target: T2, full length N-terminally FLAG-tagged PARP1 (Homo sapiens, UniProt P09874); experiment: PARP1 biochemical DELFIA assay (auto-PARylation); parameters: recombinant full length human N-terminally FLAG-tagged PARP1
T2 sequence (P09874 whole entry): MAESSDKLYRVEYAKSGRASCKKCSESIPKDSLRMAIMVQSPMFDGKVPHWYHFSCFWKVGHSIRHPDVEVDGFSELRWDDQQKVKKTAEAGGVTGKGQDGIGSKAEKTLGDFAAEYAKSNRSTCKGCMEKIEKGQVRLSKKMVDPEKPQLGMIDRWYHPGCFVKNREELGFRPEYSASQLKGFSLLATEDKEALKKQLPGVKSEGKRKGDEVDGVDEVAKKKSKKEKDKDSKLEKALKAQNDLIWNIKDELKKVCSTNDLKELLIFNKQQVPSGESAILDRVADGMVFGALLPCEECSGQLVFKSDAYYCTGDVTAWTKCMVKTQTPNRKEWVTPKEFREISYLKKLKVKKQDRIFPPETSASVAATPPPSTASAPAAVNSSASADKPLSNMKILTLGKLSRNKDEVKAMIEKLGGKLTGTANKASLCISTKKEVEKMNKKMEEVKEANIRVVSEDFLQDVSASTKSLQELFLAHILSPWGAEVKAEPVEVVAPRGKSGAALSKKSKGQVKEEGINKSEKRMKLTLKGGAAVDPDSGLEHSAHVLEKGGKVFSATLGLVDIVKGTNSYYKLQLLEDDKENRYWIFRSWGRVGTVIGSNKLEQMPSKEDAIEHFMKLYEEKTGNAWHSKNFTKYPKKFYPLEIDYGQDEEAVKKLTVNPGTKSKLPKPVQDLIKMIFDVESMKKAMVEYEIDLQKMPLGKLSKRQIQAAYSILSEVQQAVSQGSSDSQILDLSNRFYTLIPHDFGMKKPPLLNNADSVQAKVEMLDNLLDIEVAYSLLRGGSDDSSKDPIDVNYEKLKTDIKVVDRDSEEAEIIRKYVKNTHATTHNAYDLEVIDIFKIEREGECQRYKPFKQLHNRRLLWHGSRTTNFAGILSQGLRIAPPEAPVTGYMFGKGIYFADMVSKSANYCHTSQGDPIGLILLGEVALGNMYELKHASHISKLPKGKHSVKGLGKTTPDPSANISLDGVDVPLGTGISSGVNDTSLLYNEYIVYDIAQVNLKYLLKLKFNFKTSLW

[3] = target: T2, full length N-terminally FLAG-tagged PARP1; experiment: PARP1 probe displacement HTRF assay; details: for Kd: binned Kd; for Selectivity: PARP1 over PARP2, ratio Kd (PARP2)/Kd (PARP1)
[4] = binned IC50, PARP1 biochemical DELFIA assay
[5] = PARP1 HTRF, PARP1 probe displacement HTRF
[6] = binned IC50, biochemical auto-PARylation assay
[7] = read-out: PARP1 HTRF, probe displacement HTRF
[8] = read-out: PARP1 HTRF, PARP1 probe displacement HTRF

T1 sequence (Q9UGN5 whole entry, the tested form may be a part): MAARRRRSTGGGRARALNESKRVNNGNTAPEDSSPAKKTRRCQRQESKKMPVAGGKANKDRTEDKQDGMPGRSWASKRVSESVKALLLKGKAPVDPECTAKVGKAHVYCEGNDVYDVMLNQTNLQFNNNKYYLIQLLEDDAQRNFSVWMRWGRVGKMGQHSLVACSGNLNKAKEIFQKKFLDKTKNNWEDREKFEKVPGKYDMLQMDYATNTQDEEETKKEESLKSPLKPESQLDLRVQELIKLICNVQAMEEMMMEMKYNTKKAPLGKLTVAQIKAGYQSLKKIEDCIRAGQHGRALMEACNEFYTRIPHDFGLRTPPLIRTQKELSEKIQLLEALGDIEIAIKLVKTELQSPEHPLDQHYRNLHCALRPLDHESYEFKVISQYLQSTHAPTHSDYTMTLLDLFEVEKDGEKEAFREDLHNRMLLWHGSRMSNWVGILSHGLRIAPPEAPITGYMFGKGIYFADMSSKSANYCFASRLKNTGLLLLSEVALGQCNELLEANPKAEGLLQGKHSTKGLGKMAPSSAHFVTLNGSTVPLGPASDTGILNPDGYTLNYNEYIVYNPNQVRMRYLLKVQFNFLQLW

Compound	Kd ([1]; PARP2 probe displacement HTRF) [nM]	IC50 [2, 4] [nM]	Kd [3, 5] [nM]	Kd ([1]; probe displacement HTRF) [nM]	IC50 [2, 6] [nM]	Kd [3, 7] [nM]	Kd [3, 8] [nM]	Kd ([3]; PARP1 HTRF, probe displacement HTRF) [nM]	Selectivity ([3]; probe displacement HTRF)
O=C(NC1CC1)c1ccc(N2CCC(N3CCC(c4cc5ncc(F)cc5c(=O)[nH]4)C3)CC2)cn1 (single isomer, unassigned) [Compound 372a]	–	–	–	100 to 1000	< 10	< 10	–	–	+ (+ indicates a value of 10 to less than 50)
N#Cc1ccc(N2CCC(N3CCC(c4cc5ccc(F)cc5c(=O)[nH]4)C3)CC2)c(F)c1 (single isomer, unassigned) [Compound 385b]	–	–	–	10 to 100	< 10	< 10	–	–	+++ (+++ indicate a value of at least 100)
CNC(=O)c1cc(Cl)c(N2CCC(N3CCC(c4cc5ccc(F)cc5c(=O)[nH]4)C3)CC2)cn1 (single isomer, unassigned) [Compound 236b]	–	–	–	10 to 100	< 10	< 10	–	–	+ (+ indicates a value of 10 to less than 50)
CNC(=O)c1ccc(N2CCC(N3CCC(c4nc5c(c(C(F)(F)F)cn5C)c(=O)[nH]4)C3)CC2)cn1 (single isomer, unassigned) [Compound 170a]	< 10	< 10	–	–	–	–	< 10	–	− (− indicates a value of less than 10)
CNC(=O)c1ccc(N2CCC(CN3CCC(c4nc5c(Cl)cccc5c(=O)[nH]4)CC3)CC2)cn1 [Compound 40, 5-(4-((4-(8-chloro-4-oxo-3,4-dihydroquinazolin-2-yl)piperidin-1-yl)methyl)piperidin-1-yl)-N-methylpicolinamide]	100 to 1000	< 10	< 10	–	–	–	–	–	++ (++ indicates a value of 50 to less than 100)
O=C(NCC(F)F)c1ccc(N2CCC(N3CCC(c4cc5ccc(F)cc5c(=O)[nH]4)C3)CC2)c(F)n1 (single isomer, unassigned) [Compound 399a]	–	–	–	100 to 1000	< 10	< 10	–	–	+++ (+++ indicate a value of at least 100)
CNC(=O)c1ccc(N2CCC(N3CCCC(c4ncc(C)c(=O)[nH]4)C3)CC2)cn1 (single isomer, unassigned) [Compound 33b]	> 10000	10 to 100	–	–	–	–	10 to 100	–	++ (++ indicates a value of 50 to less than 100)
CCc1ccc(C2CCN(C3CCN(c4cnc(C(=O)NC)cc4C)CC3)C2)[nH]c1=O (single isomer, unassigned) [Compound 217a]	> 10000	100 to 1000	–	–	–	–	100 to 1000	–	− (− indicates a value of less than 10)
CCNC(=O)c1ccc(N2CCC(N3CCC(c4ccc(CC)c(=O)[nH]4)C3)CC2)c(F)n1 (racemic) [Compound 264rac]	–	–	–	100 to 1000	< 10	< 10	–	–	+++ (+++ indicate a value of at least 100)
CCc1cnc(-c2cnn(C3CCN(c4ccc(C(=O)NC)nc4)CC3)c2)[nH]c1=O [Compound 20]	> 10000	10 to 100	10 to 100	–	–	–	–	–	++ (++ indicates a value of 50 to less than 100)
CNC(=O)c1ccc(N2CCC(N3CCC(c4ccc(CC(F)(F)F)c(=O)[nH]4)C3)CC2)cn1 (racemic) [Compound 243rac]	–	–	–	> 10000	10 to 100	10 to 100	–	–	++ (++ indicates a value of 50 to less than 100)
CCc1ccc(C2CCN(C3CCN(c4ccc(C(=O)NC)nc4C)CC3)C2)[nH]c1=O (single isomer, unassigned) [Compound 133a]	1000 to 10000	< 10	–	–	–	–	< 10	–	+++ (+++ indicate a value of at least 100)
CNC(=O)c1ccc(N2CCC(N3CCCC(c4nc5c(c(C(F)(F)F)nn5C)c(=O)[nH]4)C3)CC2)cn1 (single isomer, unassigned) [Compound 190b]	10 to 100	< 10	–	–	–	–	< 10	–	++ (++ indicates a value of 50 to less than 100)
CNC(=O)c1ccc(N2CCC(N3CCC(c4cc5c(c(=O)[nH]4)CCC(=O)N5C)C3)CC2)cn1 (racemic) [Compound 325rac]	–	–	–	1000 to 10000	< 10	< 10	–	–	+++ (+++ indicate a value of at least 100)

Now from value to compound, other results behind:

Kd ([1]; PARP2 probe displacement HTRF) [nM]	IC50 [2, 4] [nM]	Kd [3, 5] [nM]	Kd ([1]; probe displacement HTRF) [nM]	IC50 [2, 6] [nM]	Kd [3, 7] [nM]	Kd [3, 8] [nM]	Kd ([3]; PARP1 HTRF, probe displacement HTRF) [nM]	Compound	Selectivity ([3]; probe displacement HTRF)
100 to 1000	10 to 100	10 to 100	–	–	–	–	–	CNC(=O)c1ccc(N2CCC(N3CCC(c4nc5c(Cl)cccc5c(=O)[nH]4)C3)CC2)cn1 (single isomer, unassigned) [Compound 52a, 5-(4-(3-(8-chloro-4-oxo-3,4-dihydroquinazolin-2-yl)pyrrolidin-1-yl)piperidin-1-yl)-N-methylpicolinamide]	− (− indicates a value of less than 10)
> 10000	< 10	–	–	–	–	< 10	–	CCc1nc(C(=O)NC)ccc1N1CCC(N2CCC(c3nc4ccccc4c(=O)[nH]3)C2)CC1 (single isomer, unassigned) [Compound 118a]	+++ (+++ indicate a value of at least 100)
–	–	–	1000 to 10000	< 10	10 to 100	–	–	CNC(=O)c1ccc(N2CCC(N3CCC(c4cc5cc(OC)ccc5c(=O)[nH]4)C3)CC2)cn1 (racemic) [Compound 334rac]	++ (++ indicates a value of 50 to less than 100)
1000 to 10000	< 10	–	–	–	–	< 10	–	CNC(=O)c1ccc(N2CCC(N3CCC(c4cc5ccc(Cl)cc5c(=O)[nH]4)C3)CC2)cn1 (single isomer, unassigned) [Compound 129a]	+++ (+++ indicate a value of at least 100)
1000 to 10000	100 to 1000	–	–	–	–	1000 to 10000	–	CNC(=O)c1ccc(F)c(N2CCC(N3CCCC(c4nc5ccccc5c(=O)[nH]4)C3)CC2)n1 (racemic) [Compound 95rac]	− (− indicates a value of less than 10)
–	–	–	1000 to 10000	100 to 1000	1000 to 10000	–	–	CNC(=O)c1cc(C)c(N2CCC(N3CCC(c4nc5ccccc5c(=O)[nH]4)C3)CC2)c(C)n1 (single isomer, unassigned) [Compound 224a]	− (− indicates a value of less than 10)
> 10000	100 to 1000	–	–	–	–	100 to 1000	–	CNC(=O)c1ccc(N2CCC(N3CCC(c4nc5onc(C)c5c(=O)[nH]4)C3)CC2)cn1 (single isomer, unassigned) [Compound 149a]	+ (+ indicates a value of 10 to less than 50)
–	–	–	> 10000	< 10	–	–	< 10	CNC(=O)c1ccc(N2CCC(N3CC4(c5nc6ccccc6c(=O)[nH]5)CC3(CO)C4)CC2)cn1 [Compound 284]	+++ (+++ indicate a value of at least 100)
–	–	–	> 10000	100 to 1000	100 to 1000	–	–	CNC1(c2ccc(N3CCC(N4CCC(c5nc6ccccc6c(=O)[nH]5)C4)CC3)cn2)CC1 (racemic) [Compound 412rac]	+ (+ indicates a value of 10 to less than 50)
> 10000	10 to 100	10 to 100	–	–	–	–	–	CNC(=O)c1ccc(N2CCC(n3cc(-c4nc5ccccc5c(=O)[nH]4)cn3)CC2)cn1 [Compound 17, N-methyl-5-(4-(4-(4-oxo-3,4-dihydroquinazolin-2-yl)-1H-pyrazol-1-yl)piperidin-1-yl)picolinamide]	+++ (+++ indicate a value of at least 100)
100 to 1000	< 10	–	–	–	–	< 10	–	CNC(=O)c1ccc(N2CCC(N3CCC(c4nc5cccc(F)c5c(=O)[nH]4)C3)CC2)cn1 (single isomer, unassigned) [Compound 101b]	+++ (+++ indicate a value of at least 100)
–	–	–	1000 to 10000	100 to 1000	100 to 1000	–	–	CC(=O)Nc1ccc(N2CCC(N3CCC(c4nc5ccccc5c(=O)[nH]4)C3)CC2)cn1 (single isomer, unassigned) [Compound 220a]	− (− indicates a value of less than 10)
> 10000	< 10	–	–	–	–	< 10	–	CNC(=O)c1ccc(N2CCC(N3CCC(c4nc5ncccc5c(=O)[nH]4)C3)CC2)cn1 (single isomer, unassigned) [Compound 60a]	+++ (+++ indicate a value of at least 100)
–	–	–	> 10000	100 to 1000	100 to 1000	–	–	CNC(=O)c1ccc(N2CCC(N3CCC(c4nc5c(c(=O)[nH]4)CN(C)C5)C3)CC2)cn1 (racemic) [Compound 294rac]	− (− indicates a value of less than 10)
100 to 1000	10 to 100	–	–	–	–	10 to 100	–	CNC(=O)c1ncc(N2CCC(N3CCC(c4cc5cccc(F)c5c(=O)[nH]4)C3)CC2)cn1 (racemic) [Compound 215rac]	− (− indicates a value of less than 10)
–	–	–	100 to 1000	10 to 100	10 to 100	–	–	CNC(=O)c1ccc(N2CCC(N3CCC(c4nc5c(C)scc5c(=O)[nH]4)C3)CC2)cn1 (single isomer, unassigned) [Compound 232a]	− (− indicates a value of less than 10)
100 to 1000	100 to 1000	–	–	–	–	100 to 1000	–	CNC(=O)c1ccc(N2CCC(N3CCC(c4nc5ccccc5c(=O)[nH]4)C3)CC2)nc1 (single isomer, unassigned) [Compound 46b]	− (− indicates a value of less than 10)
1000 to 10000	10 to 100	–	–	–	–	10 to 100	–	CNC(=O)c1ccc(N2CCC(N3CCC(c4cc5cccc(F)c5c(=O)[nH]4)C3)CC2)nn1 (single isomer, unassigned) [Compound 209b]	+++ (+++ indicate a value of at least 100)
